Laboratory results published in the NIST ThermoML archive (doi:10.1021/je700428f).

Experiment: xn = mol fraction of the nth substance listed
Details: 101 kPa, Liquid; for viscosity: Capillary tube (Ostwald / Ubbelohde) method

COC(C)(C)C [2-methoxy-2-methylpropane] + CCCCCCCCCC
Details | mass density [kg/m3] | viscosity [mPa·s]
273.15 K, x1 = 0.1016 | – | 1.2
273.15 K, x1 = 0.1019 | 745.52 | –
273.15 K, x1 = 0.2002 | – | 1.093
273.15 K, x1 = 0.2041 | 746.17 | –
273.15 K, x1 = 0.3003 | – | 1.004
273.15 K, x1 = 0.3077 | 747.06 | –
273.15 K, x1 = 0.3999 | 748 | –
273.15 K, x1 = 0.4013 | – | 0.909
273.15 K, x1 = 0.4992 | – | 0.822
273.15 K, x1 = 0.5005 | 749.23 | –
273.15 K, x1 = 0.6005 | – | 0.741
273.15 K, x1 = 0.6066 | 750.84 | –
273.15 K, x1 = 0.6866 | 752.32 | –
273.15 K, x1 = 0.7 | – | 0.659
273.15 K, x1 = 0.7973 | 754.83 | –
273.15 K, x1 = 0.8005 | – | 0.584
273.15 K, x1 = 0.8996 | – | 0.513
273.15 K, x1 = 0.8999 | 757.82 | –
273.15 K, x1 = 1 | 761.34 | –
278.15 K, x1 = 0.1016 | – | 1.092
278.15 K, x1 = 0.1019 | 741.7 | –
278.15 K, x1 = 0.2002 | – | 1.002
278.15 K, x1 = 0.2041 | 742.28 | –
278.15 K, x1 = 0.3003 | – | 0.924
278.15 K, x1 = 0.3077 | 743.09 | –
278.15 K, x1 = 0.3999 | 743.94 | –
278.15 K, x1 = 0.4013 | – | 0.841
278.15 K, x1 = 0.4992 | – | 0.765
278.15 K, x1 = 0.5005 | 745.06 | –
278.15 K, x1 = 0.6005 | – | 0.689
278.15 K, x1 = 0.6066 | 746.53 | –
278.15 K, x1 = 0.6866 | 747.9 | –
278.15 K, x1 = 0.7 | – | 0.615
278.15 K, x1 = 0.7973 | 750.21 | –
278.15 K, x1 = 0.8005 | – | 0.547
278.15 K, x1 = 0.8996 | – | 0.481
278.15 K, x1 = 0.8999 | 752.99 | –
278.15 K, x1 = 1 | 756.14 | –
283.15 K, x1 = 0.1016 | – | 1.001
283.15 K, x1 = 0.1019 | 737.88 | –
283.15 K, x1 = 0.2002 | – | 0.923
283.15 K, x1 = 0.2041 | 738.38 | –
283.15 K, x1 = 0.3003 | – | 0.855
283.15 K, x1 = 0.3077 | 739.1 | –
283.15 K, x1 = 0.3999 | 739.86 | –
283.15 K, x1 = 0.4013 | – | 0.779
283.15 K, x1 = 0.4992 | – | 0.713
283.15 K, x1 = 0.5005 | 740.87 | –
283.15 K, x1 = 0.6005 | – | 0.643
283.15 K, x1 = 0.6066 | 742.2 | –
283.15 K, x1 = 0.6866 | 743.44 | –
283.15 K, x1 = 0.7 | – | 0.575
283.15 K, x1 = 0.7973 | 745.55 | –
283.15 K, x1 = 0.8005 | – | 0.513
283.15 K, x1 = 0.8996 | – | 0.452
283.15 K, x1 = 0.8999 | 748.12 | –
283.15 K, x1 = 1 | 751.02 | –
288.15 K, x1 = 0.1016 | – | 0.923
288.15 K, x1 = 0.1019 | 734.04 | –
288.15 K, x1 = 0.2002 | – | 0.856
288.15 K, x1 = 0.2041 | 734.47 | –
288.15 K, x1 = 0.3003 | – | 0.793
288.15 K, x1 = 0.3077 | 735.1 | –
288.15 K, x1 = 0.3999 | 735.77 | –
288.15 K, x1 = 0.4013 | – | 0.726
288.15 K, x1 = 0.4992 | – | 0.664
288.15 K, x1 = 0.5005 | 736.66 | –
288.15 K, x1 = 0.6005 | – | 0.601
288.15 K, x1 = 0.6066 | 737.84 | –
288.15 K, x1 = 0.6866 | 738.97 | –
288.15 K, x1 = 0.7 | – | 0.54
288.15 K, x1 = 0.7973 | 740.88 | –
288.15 K, x1 = 0.8005 | – | 0.481
288.15 K, x1 = 0.8996 | – | 0.426
288.15 K, x1 = 0.8999 | 743.23 | –
288.15 K, x1 = 1 | 745.85 | –
293.15 K, x1 = 0.1016 | – | 0.855
293.15 K, x1 = 0.1019 | 730.2 | –
293.15 K, x1 = 0.2002 | – | 0.795
293.15 K, x1 = 0.2041 | 730.55 | –
293.15 K, x1 = 0.3003 | – | 0.743
293.15 K, x1 = 0.3077 | 731.09 | –
293.15 K, x1 = 0.3999 | 731.66 | –
293.15 K, x1 = 0.4013 | – | 0.678
293.15 K, x1 = 0.4992 | – | 0.622
293.15 K, x1 = 0.5005 | 732.44 | –
293.15 K, x1 = 0.6005 | – | 0.563
293.15 K, x1 = 0.6066 | 733.47 | –
293.15 K, x1 = 0.6866 | 734.47 | –
293.15 K, x1 = 0.7 | – | 0.507
293.15 K, x1 = 0.7973 | 736.17 | –
293.15 K, x1 = 0.8005 | – | 0.454
293.15 K, x1 = 0.8996 | – | 0.402
293.15 K, x1 = 0.8999 | 738.3 | –
293.15 K, x1 = 1 | 740.65 | –
298.15 K, x1 = 0.1016 | – | 0.797
298.15 K, x1 = 0.1019 | 726.35 | –
298.15 K, x1 = 0.2002 | – | 0.742
298.15 K, x1 = 0.2041 | 726.62 | –
298.15 K, x1 = 0.3003 | – | 0.692
298.15 K, x1 = 0.3077 | 727.06 | –
298.15 K, x1 = 0.3999 | 727.53 | –
298.15 K, x1 = 0.4013 | – | 0.635
298.15 K, x1 = 0.4992 | – | 0.584
298.15 K, x1 = 0.5005 | 728.19 | –
298.15 K, x1 = 0.6005 | – | 0.531
298.15 K, x1 = 0.6066 | 729.07 | –
298.15 K, x1 = 0.6866 | 729.94 | –
298.15 K, x1 = 0.7 | – | 0.479
298.15 K, x1 = 0.7973 | 731.44 | –
298.15 K, x1 = 0.8005 | – | 0.428
298.15 K, x1 = 0.8996 | – | 0.379
298.15 K, x1 = 0.8999 | 733.33 | –
298.15 K, x1 = 1 | 735.4 | –
303.15 K, x1 = 0.1016 | – | 0.744
303.15 K, x1 = 0.1019 | 722.46 | –
303.15 K, x1 = 0.2002 | – | 0.695
303.15 K, x1 = 0.2041 | 722.68 | –
303.15 K, x1 = 0.3003 | – | 0.65
303.15 K, x1 = 0.3077 | 723.02 | –
303.15 K, x1 = 0.3999 | 723.38 | –
303.15 K, x1 = 0.4013 | – | 0.597
303.15 K, x1 = 0.4992 | – | 0.55
303.15 K, x1 = 0.5005 | 723.93 | –
303.15 K, x1 = 0.6005 | – | 0.5
303.15 K, x1 = 0.6066 | 724.65 | –
303.15 K, x1 = 0.6866 | 725.39 | –
303.15 K, x1 = 0.7 | – | 0.452
303.15 K, x1 = 0.7973 | 726.66 | –
303.15 K, x1 = 0.8005 | – | 0.405
303.15 K, x1 = 0.8996 | – | 0.358
303.15 K, x1 = 0.8999 | 728.32 | –
303.15 K, x1 = 1 | 730.1 | –
308.15 K, x1 = 0.1016 | – | 0.698
308.15 K, x1 = 0.1019 | 718.59 | –
308.15 K, x1 = 0.2002 | – | 0.653
308.15 K, x1 = 0.2041 | 718.72 | –
308.15 K, x1 = 0.3003 | – | 0.606
308.15 K, x1 = 0.3077 | 718.96 | –
308.15 K, x1 = 0.3999 | 719.22 | –
308.15 K, x1 = 0.4013 | – | 0.562
308.15 K, x1 = 0.4992 | – | 0.519
308.15 K, x1 = 0.6005 | – | 0.474
308.15 K, x1 = 0.7 | – | 0.428
308.15 K, x1 = 0.8005 | – | 0.382
